Results as given in article PMC8377144, “Retro-enantio isomer of angiopep-2 assists nanoprobes across the blood-brain barrier for targeted magnetic resonance/fluorescence imaging of glioblastoma” (Signal Transduction and Targeted Therapy, 2021).

System: in vitro BBB model (bEnd.3 cells cocultured with U87-MG cells)
Assay: NaFl permeability test of the in vitro BBB model (Transwell)
Assay type: in vitro ADME, mouse
Conditions: bEnd.3 upper / U87-MG lower chamber, 3 µm polycarbonate, 0.33 cm^2, 200 µL NaFl 10 µg/mL upper, 900 µL PBS lower, 37 °C, sampling 30, 60, 90 min, microplate reader 485/535 nm
Method: Construction of the in vitro BBB model: U87-MG cells and bEnd.3 cells were initially cultured in high-glucose DMEM containing 10% FBS and 1% penicillin/streptomycin at 37 °C with 5% CO2. Moreover, a layer of a collagen solution was smeared on the inner side of the polycarbonate Transwell (3 µm mean pore size, 0.33 cm^2 surface area, Millipore, USA) and dried naturally on a clean bench for 30 min. Then, bEnd.3 cells were inoculated into the upper chamber of 24-well transwells units at a density of 5 × 10^4 cells per well. Two days later, U87-MG cells were inoculated into the lower chamber at a density of 1 × 10^5 cells per well and cocultured with bEnd.3 cells for one week.
Another test taken as an example from a previous study using sodium fluorescein (NaFl) was also introduced to evaluate in vitro BBB permeability.[44] […] The absorbance of standard solutions was obtained by a multidetection monochrometer microplate reader, and subsequently, a NaFl concentration-absorbance curve was made. With the help of the curve, we measured the in vitro BBB permeability with NaFl. […] Then, a multidetection monochrometer microplate reader (485/535 nm) was used to measure the amount of NaFl in the […]. The apparent permeability coefficient (Papp) was calculated as follows: […]

Compound: O=C([O-])c1ccccc1-c1c2ccc(=O)cc-2oc2cc([O-])ccc12.[Na+].[Na+] [NaFl, sodium fluorescein]
- Papp of NaFl, BBB model group: 11.24 ± 0.73 × 10^−6 cm/s
